This note sets out measurements from patent US9850283B2, “Macrocyclic inhibitors of the PD-1/PD-L1 and CD80(B7-1)/PD-L1 protein/protein interactions” (BRISTOL-MYERS SQUIBB COMPANY, priority 2013, dated 2017).

Positions of bridges follow the written chain, without caps; N, C: chain ends. Non-standard residues stand in square brackets, D forms with d. Residues, ends and D or L forms follow the SMILES beside them. Phe(3,4-(OMe)2) = COc1ccc(C[C@H](N)C(=O)O)cc1OC; Phe(4-CH2NH2) = NCc1ccc(C[C@H](N)C(=O)O)cc1; Phe(4-F) = N[C@@H](Cc1ccc(F)cc1)C(=O)O; 2Nal = N[C@@H](Cc1ccc2ccccc2c1)C(=O)O; NMeF = CN[C@@H](Cc1ccccc1)C(=O)O; NMeNle = CCCC[C@H](NC)C(=O)O; Sar = CNCC(=O)O Where only a bound is given, the exact number is not on record here.

The target in one assay is T1, Human PD-L1/PD-1 (Homo sapiens, UniProt Q9NZQ7).
T1 construct: made in house; host or cells: HEK293T
The assay is described as follows: HTRF PD-1-Ig/PD-L1-His binding assay (human PD-L1). To be noted: cluster symbol; read-out: HTRF IC50 cluster. In outline:
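HTRF read-out: Eu cryptate anti-Ig mAb 1 nM final, APC anti-His mAb 20 nM final, added over the binding reaction. Proteins were PD-1-Ig and PD-L1-His ectodomain fusions. Buffer was dPBS, 0.1% BSA, 0.05% Tween-20.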
Background: In TR-FRET formats the signal depends on donor and acceptor labels being close together.

Assay [1] concerns the target T2, LK35.2-hPD-L1 cells / PE-labeled PD-1-Ig (Homo sapiens, UniProt Q9NZQ7).
T2 construct: expressed in transfected cells; host or cells: LK35.2 mouse B cell line
The assay is described as follows: LK35.2-hPD-L1 cell binding high-content screening assay. The assay is classed as cell-based. The following applies: cell binding assay, cell line not given; cluster symbol; read-out: CBA IC50 cluster. The essentials:
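Readout: high-content imaging of PE-PD-1-Ig bound to LK35.2-hPD-L1 cells. Cells plated overnight (RPMI/10% FCS); compound + 1 nM PE-PD-1-Ig, 1 h, 37 °C; 3× dPBS wash before imaging.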

T2 sequence (Q9NZQ7 19-290): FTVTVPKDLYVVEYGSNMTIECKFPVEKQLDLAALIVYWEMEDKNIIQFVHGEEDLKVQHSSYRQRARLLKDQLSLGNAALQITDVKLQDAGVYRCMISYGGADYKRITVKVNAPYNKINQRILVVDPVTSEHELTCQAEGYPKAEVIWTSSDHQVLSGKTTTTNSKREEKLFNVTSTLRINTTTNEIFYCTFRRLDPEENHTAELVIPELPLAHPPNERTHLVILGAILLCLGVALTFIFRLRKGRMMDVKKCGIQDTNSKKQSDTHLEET
T1 sequence (Q9NZQ7 with tags, fused parts or gaps): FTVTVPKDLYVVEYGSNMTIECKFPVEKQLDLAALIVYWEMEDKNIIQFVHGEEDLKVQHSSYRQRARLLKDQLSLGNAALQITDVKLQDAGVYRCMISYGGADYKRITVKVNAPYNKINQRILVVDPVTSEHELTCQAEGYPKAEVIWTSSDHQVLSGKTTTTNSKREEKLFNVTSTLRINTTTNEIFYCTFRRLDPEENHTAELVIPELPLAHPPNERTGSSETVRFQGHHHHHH

On to `CCCC[C@H]1C(=O)N(C)CC(=O)N[C@@H](CC(=O)O)C(=O)N[C@@H](C(C)C)C(=O)N(C)[C@@H](Cc2ccccc2)C(=O)N[C@@H](Cc2ccc(O)cc2)C(=O)N(C)CC(=O)N[C@@H](Cc2c[nH]c3ccccc23)C(=O)N[C@@H](Cc2ccc(O)cc2)C(=O)N[C@@H](CC(C)C)C(=O)N[C@H](C(=O)NCC(N)=O)CSCC(=O)N[C@@H](Cc2ccc(F)cc2)C(=O)N(C)[C@@H](Cc2ccccc2)C(=O)N1C` [Example 3520] ({CH2CO}-[Phe(4-F)][NMeF][NMeNle][Sar]DV[NMeF]Y[Sar]WYLCG-NH2; thioether N-13), for which the 50% inhibitory concentration (IC50) – broadly, the midpoint of a concentration-inhibition curve – on Human PD-L1/PD-1 lay in the range of 6.76 to 30.3 nM; in assay [1], 0.158 to 4.71 nM.

Take `CCCC[C@H]1C(=O)N(C)CC(=O)N[C@@H](CC(=O)O)C(=O)N[C@@H](C(C)C)C(=O)N[C@@H](Cc2ccc(CN)cc2)C(=O)N[C@@H](Cc2ccc(O)cc2)C(=O)N(C)CC(=O)N[C@@H](Cc2c[nH]c3ccccc23)C(=O)N[C@@H](Cc2ccc(O)cc2)C(=O)N[C@@H](CC(C)C)C(=O)N[C@H](C(=O)NCC(N)=O)CSCC(=O)N[C@@H](Cc2ccccc2)C(=O)N(C)[C@@H](Cc2ccccc2)C(=O)N1C` [Example 3523] ({CH2CO}-F[NMeF][NMeNle][Sar]DV[Phe(4-CH2NH2)]Y[Sar]WYLCG-NH2; thioether N-13): the IC50 was greater than 30.5 nM on Human PD-L1/PD-1 and greater than 74.3 nM in assay [1].

Regarding `CCCC[C@H]1C(=O)N(C)CC(=O)N[C@@H](CC(=O)O)C(=O)N[C@@H](C(C)C)C(=O)N(C)[C@@H](Cc2ccccc2)C(=O)N[C@@H](Cc2ccc(CN)cc2)C(=O)N(C)CC(=O)N[C@@H](Cc2c[nH]c3ccccc23)C(=O)N[C@@H](Cc2ccc(O)cc2)C(=O)N[C@@H](CC(C)C)C(=O)N[C@H](C(=O)NCC(N)=O)CSCC(=O)N[C@@H](Cc2ccccc2)C(=O)N(C)[C@@H](Cc2ccccc2)C(=O)N1C` [Example 3524] ({CH2CO}-F[NMeF][NMeNle][Sar]DV[NMeF][Phe(4-CH2NH2)][Sar]WYLCG-NH2; thioether N-13), the IC50 lay within 6.76 to 30.3 nM at Human PD-L1/PD-1 and 0.158 to 4.71 nM in assay [1].

For `CCCC[C@H]1C(=O)N(C)CC(=O)N[C@@H](CC(=O)O)C(=O)N[C@@H](CCC)C(=O)N(C)[C@@H](Cc2ccccc2)C(=O)N[C@@H](Cc2ccc(O)cc2)C(=O)N(C)CC(=O)N[C@@H](Cc2c[nH]c3ccccc23)C(=O)N[C@@H](Cc2ccc(O)cc2)C(=O)N[C@@H](CC(C)C)C(=O)N[C@H](C(=O)NCC(N)=O)CSCC(=O)N[C@@H](Cc2ccccc2)C(=O)N(C)[C@@H](Cc2ccccc2)C(=O)N1C` [Example 3525] (HELM PEPTIDE1{[O=C(C[*:3])[*:2]].F.[meF].[CCCC[C@@H](C(=O)[*:2])N(C)[*:1]].[Sar].D.[Nva].[meF].Y.[Sar].W.Y.L.C.G.[am]}$PEPTIDE1,PEPTIDE1,1:R3-14:R3$$$V2.0), the IC50 is greater than 30.5 nM on Human PD-L1/PD-1 and greater than 74.3 nM in assay [1].

In the case of `CCCC[C@H]1C(=O)N[C@H](CCC(=O)O)C(=O)N[C@@H](CC(=O)O)C(=O)N[C@@H](C(C)C)C(=O)N(C)[C@@H](Cc2ccccc2)C(=O)N[C@@H](Cc2ccc(O)cc2)C(=O)N(C)CC(=O)N[C@@H](Cc2c[nH]c3ccccc23)C(=O)N[C@@H](Cc2ccc(O)cc2)C(=O)N[C@@H](CC(C)C)C(=O)N[C@H](C(=O)NCC(N)=O)CSCC(=O)N[C@@H](Cc2ccccc2)C(=O)N(C)[C@@H](Cc2ccccc2)C(=O)N1C` [Example 3527] (HELM PEPTIDE1{[O=C(C[*:3])[*:2]].F.[meF].[CCCC[C@@H](C(=O)[*:2])N(C)[*:1]].[dE].D.V.[meF].Y.[Sar].W.Y.L.C.G.[am]}$PEPTIDE1,PEPTIDE1,1:R3-14:R3$$$V2.0), the IC50 on Human PD-L1/PD-1 lay in the range of 6.76 to 30.3 nM; in assay [1], 4.78 to 72.9 nM.

For the compound `CCCC[C@H]1C(=O)N(C)CC(=O)N[C@@H](CC(=O)O)C(=O)N[C@@H](CC(C)C)C(=O)N(C)[C@@H](Cc2ccccc2)C(=O)N[C@@H](Cc2ccc(O)cc2)C(=O)N(C)CC(=O)N[C@@H](Cc2c[nH]c3ccccc23)C(=O)N[C@@H](Cc2ccc(O)cc2)C(=O)N[C@@H](CC(C)C)C(=O)N[C@H](C(=O)NCC(N)=O)CSCC(=O)N[C@@H](Cc2ccccc2)C(=O)N(C)[C@@H](Cc2ccccc2)C(=O)N1C` [Example 3529] (HELM PEPTIDE1{[O=C(C[*:3])[*:2]].F.[meF].[CCCC[C@@H](C(=O)[*:2])N(C)[*:1]].[Sar].D.L.[meF].Y.[Sar].W.Y.L.C.G.[am]}$PEPTIDE1,PEPTIDE1,1:R3-14:R3$$$V2.0), the figures for the IC50 (on Human PD-L1/PD-1; in assay [1]) were greater than 30.5 nM and 4.78 to 72.9 nM, respectively.

Turning to `CCCC[C@H]1C(=O)N(C)CC(=O)N[C@@H](CC(=O)O)C(=O)N[C@@H](C(C)C)C(=O)N(C)[C@@H](Cc2ccccc2)C(=O)N[C@@H](Cc2ccc(OC)c(OC)c2)C(=O)N(C)CC(=O)N[C@@H](Cc2c[nH]c3ccccc23)C(=O)N[C@@H](Cc2ccc(O)cc2)C(=O)N[C@@H](CC(C)C)C(=O)N[C@H](C(=O)NCC(N)=O)CSCC(=O)N[C@@H](Cc2ccccc2)C(=O)N(C)[C@@H](Cc2ccccc2)C(=O)N1C` [Example 3533] ({CH2CO}-F[NMeF][NMeNle][Sar]DV[NMeF][Phe(3,4-(OMe)2)][Sar]WYLCG-NH2; thioether N-13), the IC50 at Human PD-L1/PD-1 is 6.76 to 30.3 nM; in assay [1], 4.78 to 72.9 nM.

As for `CCCC[C@H]1C(=O)N(C)CC(=O)N[C@@H](CC(=O)O)C(=O)N[C@@H](C(C)C)C(=O)N(C)[C@@H](Cc2ccccc2)C(=O)N[C@@H](Cc2ccccc2)C(=O)N(C)CC(=O)N[C@@H](Cc2c[nH]c3ccccc23)C(=O)N[C@@H](Cc2ccc(O)cc2)C(=O)N[C@@H](CC(C)C)C(=O)N[C@H](C(=O)NCC(N)=O)CSCC(=O)N[C@@H](Cc2ccccc2)C(=O)N(C)[C@@H](Cc2ccccc2)C(=O)N1C` [Example 3534] (HELM PEPTIDE1{[O=C(C[*:3])[*:2]].F.[meF].[CCCC[C@@H](C(=O)[*:2])N(C)[*:1]].[Sar].D.V.[meF].F.[Sar].W.Y.L.C.G.[am]}$PEPTIDE1,PEPTIDE1,1:R3-14:R3$$$V2.0), the IC50 was 6.76 to 30.3 nM on Human PD-L1/PD-1 and 4.78 to 72.9 nM in assay [1].

Consider `CCCC[C@H]1C(=O)N(C)CC(=O)N[C@@H](CC(=O)O)C(=O)N[C@@H](C(C)C)C(=O)N(C)[C@@H](Cc2ccccc2)C(=O)N[C@@H](Cc2ccc3ccccc3c2)C(=O)N(C)CC(=O)N[C@@H](Cc2c[nH]c3ccccc23)C(=O)N[C@@H](Cc2ccc(O)cc2)C(=O)N[C@@H](CC(C)C)C(=O)N[C@H](C(=O)NCC(N)=O)CSCC(=O)N[C@@H](Cc2ccccc2)C(=O)N(C)[C@@H](Cc2ccccc2)C(=O)N1C` [Example 3535] ({CH2CO}-F[NMeF][NMeNle][Sar]DV[NMeF][2Nal][Sar]WYLCG-NH2; thioether N-13), for which the IC50 on Human PD-L1/PD-1 is greater than 30.5 nM; in assay [1] it was 4.78 to 72.9 nM.

As for `CCCC[C@H]1C(=O)N(C)CC(=O)N[C@@H](CC(=O)O)C(=O)N[C@@H](C(C)C)C(=O)N(C)[C@@H](Cc2ccccc2)C(=O)N[C@@H](Cc2ccc(O)cc2)C(=O)N(C)CC(=O)N[C@@H](Cc2c[nH]c3ccccc23)C(=O)N[C@@H](Cc2ccc(O)cc2)C(=O)N[C@@H](Cc2ccc(CN)cc2)C(=O)N[C@H](C(=O)NCC(N)=O)CSCC(=O)N[C@@H](Cc2ccccc2)C(=O)N(C)[C@@H](Cc2ccccc2)C(=O)N1C` [Example 3536] ({CH2CO}-F[NMeF][NMeNle][Sar]DV[NMeF]Y[Sar]WY[Phe(4-CH2NH2)]CG-NH2; thioether N-13), the IC50 at Human PD-L1/PD-1 lay in the range of 6.76 to 30.3 nM; in assay [1] it was 4.78 to 72.9 nM.

Consider `CCCC[C@H]1C(=O)N(C)CC(=O)N[C@@H](CC(=O)O)C(=O)N[C@@H](C(C)C)C(=O)N(C)[C@@H](Cc2ccccc2)C(=O)N[C@@H](Cc2ccc(O)cc2)C(=O)N(C)CC(=O)N[C@@H](Cc2c[nH]c3ccccc23)C(=O)N[C@@H](Cc2ccc(O)cc2)C(=O)N[C@@H](Cc2ccccc2)C(=O)N[C@H](C(=O)NCC(N)=O)CSCC(=O)N[C@@H](Cc2ccccc2)C(=O)N(C)[C@@H](Cc2ccccc2)C(=O)N1C` [Example 3537] (HELM PEPTIDE1{[O=C(C[*:3])[*:2]].F.[meF].[CCCC[C@@H](C(=O)[*:2])N(C)[*:1]].[Sar].D.V.[meF].Y.[Sar].W.Y.F.C.G.[am]}$PEPTIDE1,PEPTIDE1,1:R3-14:R3$$$V2.0), for which the values for the 50% inhibitory concentration (IC50) (on Human PD-L1/PD-1; in assay [1]) were 6.76 to 30.3 nM and 4.78 to 72.9 nM, respectively.

On to `CCCC[C@H]1C(=O)N(C)CC(=O)N[C@@H](CC(=O)O)C(=O)N[C@@H](C(C)C)C(=O)N(C)[C@@H](Cc2ccccc2)C(=O)N[C@@H](Cc2ccc(O)cc2)C(=O)N(C)CC(=O)N[C@@H](Cc2c[nH]c3ccccc23)C(=O)N[C@@H](Cc2ccc3ccccc3c2)C(=O)N[C@@H](CC(C)C)C(=O)N[C@H](C(=O)NCC(N)=O)CSCC(=O)N[C@@H](Cc2ccccc2)C(=O)N(C)[C@@H](Cc2ccccc2)C(=O)N1C` [Example 3538] ({CH2CO}-F[NMeF][NMeNle][Sar]DV[NMeF]Y[Sar]W[2Nal]LCG-NH2; thioether N-13), for which the IC50 at Human PD-L1/PD-1 is greater than 30.5 nM; in assay [1], greater than 74.3 nM.

On to `CCCC[C@H]1C(=O)N(C)CC(=O)N[C@@H](CC(=O)O)C(=O)N[C@@H](C(C)C)C(=O)N(C)[C@@H](Cc2ccccc2)C(=O)N[C@@H](Cc2ccc(O)cc2)C(=O)N(C)CC(=O)N[C@@H](Cc2c[nH]c3ccccc23)C(=O)N[C@@H](Cc2c[nH]c3ccccc23)C(=O)N[C@@H](CC(C)C)C(=O)N[C@H](C(=O)NCC(N)=O)CSCC(=O)N[C@@H](Cc2ccccc2)C(=O)N(C)[C@@H](Cc2ccccc2)C(=O)N1C` [Example 3539] (HELM PEPTIDE1{[O=C(C[*:3])[*:2]].F.[meF].[CCCC[C@@H](C(=O)[*:2])N(C)[*:1]].[Sar].D.V.[meF].Y.[Sar].W.W.L.C.G.[am]}$PEPTIDE1,PEPTIDE1,1:R3-14:R3$$$V2.0), for which the IC50 is greater than 30.5 nM at Human PD-L1/PD-1 and greater than 74.3 nM in assay [1].
